According to patent publication US8329704B2, “Substituted pyrazinone derivatives for use in MCH-1 mediated diseases” (Janssen Pharmaceutica, N.V., priority 2005, dated 2012):

Target: T1, human MCH-1 receptor (Homo sapiens, UniProt Q99705)
T1 construct: expressed in transfected cells
Assay: Ca2+ mobilization experiment for the MCH-1 receptor (FLIPR), inhibition of MCH-induced Ca2+ mobilization
Assay type: cell-based
Settings: CHO cells stably expressing human MCH-1 receptor, inhibition of MCH-induced Ca2+ response, read-out: MCH-1 pIC50 (converted)
Description: The interaction of the compounds of Formula (I) with MCH-1 receptors was assessed in in vitro transient calcium (Ca^2+) mobilization assays in the fluorimetric imaging plate reader (FLIPR) format (Sullivan et al. 1999, Methods Mol Biol 114:125-133). In general, the natural agonist (MCH) is incubated with cells expressing the MCH-1 receptor, which elicits a concentration-dependent transient mobilization of Ca^2+ from internal stores. The interaction of the test compounds with the receptor is assessed in competition experiments. Various concentrations of the test compound are added to the incubation mixture containing the receptor-expressing cells and a submaximal concentration of MCH. The test compound in proportion to its antagonist potency and its concentration inhibits MCH-induced Ca^2+ mobilization.
Chinese Hamster ovary cells (CHO) stably expressing the human MCH-1 receptor are grown in a 1:1 mixture of Dulbecco's Modified Eagles Medium (DMEM) and HAM's F12 medium including Glutamax™ (Invitrogen), supplemented with 10% heat-inactivated fetal bovine serum and 400 μg/ml geneticin.
Twenty-four hours before the experiment, MCH-1 receptor-expressing CHO cells are seeded in 20 μl (5,000 cells per well) into 384-well black wall, clear bottom microtiter plates (Costar). On the day of the experiment, 20 μl per well calcium assay kit containing 10 mM probenicide (Molecular Devices) is added. Cells are loaded for 90 min at 37° C. and 5% CO2 in a cell culture incubator. After loading, 20 μl of serial dilutions of the test compound are added and cells are further incubated for 20 min at room temperature in the dark. After 20 min, 20 μl of a submaximal MCH concentration is added and changes in intracellular calcium are recorded directly in a FLIPR III apparatus (Molecular devices).
Data from assays in the presence of compound were calculated as a percentage of total Ca^2+-responses measured in the absence of test compound. Inhibition curves, plotting percent of total Ca^2+-responses versus the log value of the concentration of the test compound, were automatically generated, and sigmoidal inhibition curves were fitted using non-linear regression. The pIC50 values of test compounds were derived from individual curves.

T1 sequence (Q99705 whole entry): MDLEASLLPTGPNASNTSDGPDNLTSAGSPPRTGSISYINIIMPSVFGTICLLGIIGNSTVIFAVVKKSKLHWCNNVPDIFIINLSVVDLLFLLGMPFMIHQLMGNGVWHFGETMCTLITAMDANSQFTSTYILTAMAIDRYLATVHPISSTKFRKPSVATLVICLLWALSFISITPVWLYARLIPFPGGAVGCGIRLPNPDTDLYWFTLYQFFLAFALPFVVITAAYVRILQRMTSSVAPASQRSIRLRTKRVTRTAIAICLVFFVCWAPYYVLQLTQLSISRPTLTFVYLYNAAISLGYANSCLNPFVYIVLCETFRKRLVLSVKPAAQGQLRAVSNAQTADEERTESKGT

| Structure (SMILES) | IC50 |
| --- | --- |
| O=c1c(NCCc2ccc(F)cc2)nccn1-c1ccc(OCCN2CCCC2)cc1 [2-15] | 63.1 nM |
| O=c1c(NCCOc2ccccc2Cl)nccn1-c1ccc(OCCN2CCCC2)cc1 [2-27] | 251 nM |
| COc1cc(-n2ccnc(NCCc3ccccc3)c2=O)ccc1OCCCN1CCC(C#N)CC1 [3-73] | 39.8 nM |
| COc1cc(-n2ccnc(NCCc3ccccc3)c2=O)ccc1N1CCC(N(C)C2CC2)C1 (stereo not shown) [3-17] | 79.4 nM |
| CCCN1CCC(Oc2ccc(-n3ccnc(SCCc4ccccc4)c3=O)cc2OC)C1 (stereo not shown) [6-17] | 15.8 nM |
| CC(C)N1CCN(c2ccc(-n3ccnc(NCCOc4ccccc4)c3=O)cc2)CC1 [1-07] | 1580 nM |
| COc1cc(-n2ccnc(NCCc3ccc(Cl)cc3)c2=O)ccc1OCCN1CCCC1 [2-24] | 25.1 nM |
| COc1cc(-n2ccnc(N3CCC(c4cccc(C(F)(F)F)c4)C3)c2=O)ccc1OCCN1CCCC1 (stereo not shown) [4-05] | 2000 nM |
| COc1cc(-n2ccnc(CCCc3ccccc3)c2=O)ccc1OCCN1CCCC1 [2-01] | 126 nM |
| COc1cc(-n2ccnc(NCCc3ccccc3)c2=O)ccc1NC1CCN(C)C1 (stereo not shown) [3-25] | 63.1 nM |
| COc1cc(-n2ccnc(NCCOc3ccccc3)c2=O)ccc1OCCN1CCC(F)(F)CC1 [1-73] | 50.1 nM |
| CN1CCN(c2ccc(-n3ccnc(NCCc4ccccc4)c3=O)cc2Cl)CC1 [3-78] | 50.1 nM |
| COc1cc(-n2ccnc(NCCc3ccccc3)c2=O)ccc1OCCN(C)C1CC1 [3-42] | 31.6 nM |
| COc1cc(-n2ccnc(SCCc3ccccc3)c2=O)ccc1C=CCN1CCCC1 [6-12] | 25.1 nM |
| COc1cc(-n2ccnc(NCCc3ccccc3)c2=O)ccc1OCCCN1CCC(O)C1 (stereo not shown) [3-70] | 50.1 nM |
| COc1cc(-n2ccnc(NCCOc3ccccc3)c2=O)ccc1OCCCN1CCCCC1 [1-77] | 50.1 nM |
| COc1cc(-n2ccnc(NCCc3ccccc3)c2=O)ccc1OCCCN1CCC(F)(F)CC1 [3-74] | 31.6 nM |
| COc1cc(-n2ccnc(NCCOc3ccccc3)c2=O)ccc1OC1CNC1 [1-57] | 63.1 nM |
| CC(C)C(=O)N(C)C1CCN(c2ccc(-n3ccnc(NCCc4ccccc4)c3=O)cc2)C1 (stereo not shown) [3-04] | 100 nM |
| COc1cc(-n2ccnc(NCCc3ccccc3)c2=O)ccc1N1CCC(N(C)C)C1 (stereo not shown) [3-13] | 50.1 nM |
| COc1cc(-n2ccnc(NCCOc3ccccc3)c2=O)ccc1/C=C/CN1CCOCC1 [1-18] | 39.8 nM |
| COc1cc(-n2ccnc(NCCOc3ccccc3)c2=O)ccc1OCCN(C)C(=O)CN(C)C [1-63] | 200 nM |
| COc1cc(-n2ccnc(NCCc3ccccc3)c2=O)ccc1OCCCNC(C)=O [3-66] | 126 nM |
| CC(=O)N(C)C1CCN(c2ccc(-n3ccnc(NCCc4ccccc4)c3=O)cc2)C1 (stereo not shown) [3-03] | 63.1 nM |
| O=c1c(NCCOc2ccccc2)nccn1-c1ccc(N2CCNCC2)cc1 [1-06] | 2000 nM |
| CCCN1CCC(Nc2ccc(-n3ccnc(NCCc4ccccc4)c3=O)cc2OC)C1 (stereo not shown) [3-26] | 39.8 nM |
| COc1cc(-n2ccnc(SCCc3ccccc3)c2=O)ccc1OC1CCN(C)C1 (stereo not shown) [6-15] | 15.8 nM |

| Structure (SMILES) | IC50 |
| --- | --- |
| COc1cc(-n2ccnc(NCCOc3cccc(Cl)c3)c2=O)ccc1OCCN1CCCC1 [2-30] | 50.1 nM |
| COc1cc(-n2ccnc(SCCc3cccc(Cl)c3)c2=O)ccc1OCCN1CCCC1 [2-25] | 126 nM |
| O=c1c(NCCc2ccccc2)nccn1-c1ccc(N2CCNCC2)cc1 [3-06] | 100 nM |
| COc1cc(-n2ccnc(NCCOc3ccccc3)c2=O)ccc1OCCCN1CCCC1 [1-75] | 100 nM |
| CC(C)(C)OC(=O)N1CCN(c2ccc(-n3ccnc(NCCc4ccccc4)c3=O)cc2)CC1 [3-07] | 501 nM |
| COc1cc(-n2ccnc(NCCc3ccccc3)c2=O)ccc1OCCN1CCC(O)C1 (stereo not shown) [3-45] | 31.6 nM |
| COc1cc(-n2ccnc(NCCc3ccccc3)c2=O)ccc1OCCN1CCNC(=O)C1 [3-65] | 158 nM |
| CN(C1CCN(c2ccc(-n3ccnc(NCCOc4ccccc4)c3=O)cc2)C1)S(C)(=O)=O (stereo not shown) [1-05] | > 10000 nM |
| CNC1CCN(c2ccc(-n3ccnc(NCCc4ccccc4)c3=O)cc2)C1 (stereo not shown) [3-02] | 50.1 nM |
| COc1cc(-n2ccnc(NCCc3ccccc3)c2=O)ccc1OCCCNC(=O)C1CC1 [3-69] | 126 nM |
| COc1cc(-n2ccnc(NCCOc3ccccc3)c2=O)ccc1N1CCC(N)CC1 [1-13] | 79.4 nM |
| O=c1c(NCCOc2ccccc2)nccn1-c1ccc(OCCCCN2CCCC2)cc1 [1-47] | 1000 nM |
| CN(CCOc1ccc(-n2ccnc(NCCOc3ccccc3)c2=O)cc1)C1CCCCC1 [1-25] | 631 nM |
| COc1cc(-n2ccnc(NCCc3ccccc3)c2=O)ccc1OCCN1CCC2(CC1)OCCO2 [3-58] | 50.1 nM |
| COc1cccc(CCNc2nccn(-c3ccc(OCCN4CCCC4)c(OC)c3)c2=O)c1 [2-35] | 31.6 nM |
| COc1cc(-n2ccnc(N3CCC(c4ccc(Cl)c(Cl)c4)C3)c2=O)ccc1OCCN1CCCC1 (stereo not shown) [4-08] | 794 nM |
| COc1cc(-n2ccnc(NCCc3ccccc3)c2=O)ccc1NCCN1CCCC1 [3-28] | 126 nM |
| COc1cc(-n2ccnc(NCCCOc3ccc(Cl)cc3Cl)c2=O)ccc1OCCN1CCCC1 [2-41] | 631 nM |
| O=c1c(NCCOc2ccccc2)nccn1-c1ccc(OCCN2CCC(O)C2)cc1 (stereo not shown) [1-36] | 316 nM |
| CNC1CCN(c2ccc(-n3ccnc(NCCc4ccccc4)c3=O)cc2OC)C1 (stereo not shown) [3-12] | 63.1 nM |
| O=c1c(NCCOc2ccccc2)nccn1-c1ccc2c(cnn2CCN2CCCC2)c1 [3-85] | 398 nM |
| O=c1c(NCCc2ccccc2)nccn1-c1ccc2c(c1)OCC(CN1CCOCC1)=C2 [3-92] | 79.4 nM |
| COc1cc(-n2ccnc(SCCc3ccccc3)c2=O)ccc1N1CCC(O)C1 (stereo not shown) [6-01] | 39.8 nM |
| CN(C)CCN1CCc2cc(-n3ccnc(NCCOc4ccccc4)c3=O)ccc21 [3-84] | 79.4 nM |
| COc1cc(-n2ccnc(NCCc3ccccc3)c2=O)ccc1OCCN1C(C)COCC1C (stereo not shown) [3-62] | 39.8 nM |
| COc1cc(-n2ccnc(N3CCC(Oc4ccccc4)CC3)c2=O)ccc1OCCN1CCCC1 [4-02] | 631 nM |
| CN1CCN(CCOc2ccc(-n3ccnc(NCCc4ccccc4)c3=O)cc2Cl)CC1 [3-82] | 50.1 nM |

| Structure (SMILES) | IC50 |
| --- | --- |
| COc1cc(-n2ccnc(NCCc3ccccc3)c2=O)ccc1N1CCCN(C)CC1 [3-19] | 126 nM |
| O=c1c(NCCOc2ccc(F)cc2)nccn1-c1ccc(OCCN2CCCC2)cc1 [2-17] | 2000 nM |
| COc1cc(-n2ccnc(NCCc3ccc(F)cc3)c2=O)ccc1OCCN1CCCC1 [2-16] | 25.1 nM |
| COC(=O)c1cc(-n2ccnc(NCCOc3ccccc3)c2=O)ccc1OCCN1CCCC1 [1-54] | 200 nM |
| O=c1c(SCCc2ccccc2)nccn1-c1ccc(OCCN2CCCC2)cc1 [2-10] | 31.6 nM |
| CN(C1CCN(c2ccc(-n3ccnc(NCCc4ccccc4)c3=O)cc2)C1)S(C)(=O)=O (stereo not shown) [3-01] | 100 nM |
| COc1cc(-n2ccnc(NCCOc3ccccc3Cl)c2=O)ccc1OCCN1CCCC1 [2-28] | 79.4 nM |
| NC(=O)c1cc(-n2ccnc(NCCOc3ccccc3)c2=O)ccc1OCCN1CCCC1 [1-55] | 1000 nM |
| COc1cc(-n2ccnc(NCCc3ccc(C(F)(F)F)cc3F)c2=O)ccc1OCCN1CCCC1 [2-43] | 794 nM |
| COc1cc(-n2ccnc(NCCc3ccccc3)c2=O)ccc1OCCN1CCC(F)CC1 [3-50] | 20 nM |
| COc1cc(-n2ccnc(NCCc3ccccc3)c2=O)ccc1OCCN1CC(C)OC(C)C1 (stereo not shown) [3-63] | 158 nM |
| COc1cc(-n2ccnc(SCCc3ccccc3)c2=O)ccc1N1CCOCC1 [6-10] | 63.1 nM |
| CC(=O)c1cc(-n2ccnc(NCCOc3ccccc3)c2=O)ccc1OCCN1CCCC1 [1-53] | 100 nM |
| O=c1c(NCCOc2ccccc2)nccn1-c1ccc(OCCN2CCCCC2)cc1 [1-38] | 1580 nM |
| O=c1c(NCCOc2ccccc2)nccn1-c1ccc(OCCCN2CCCC2)cc1 [1-46] | 3160 nM |
| COc1cc(-n2ccnc(NCCc3ccccc3)c2=O)ccc1OCCN1CCOC(CO)C1 (stereo not shown) [3-64] | 100 nM |
| COc1cc(-n2ccnc(SCCc3ccccc3)c2=O)ccc1N1CCC(N2C(C)CCCC2C)C1 (stereo not shown) [6-09] | 31.6 nM |
| CCCC(=O)NCCOc1ccc(-n2ccnc(NCCc3ccccc3)c2=O)cc1OC [3-39] | 63.1 nM |
| COc1cc(-n2ccnc(NCCCOc3ccccc3)c2=O)ccc1OC1CCNCC1 [7-01] | 31.6 nM |
| COc1cc(-n2ccnc(NCCc3ccccc3)c2=O)ccc1C=CCN1CCCC1 [3-22] | 31.6 nM |
| COc1cc(-n2ccnc(N3CCCC(c4ccc(F)cc4)C3)c2=O)ccc1OCCN1CCCC1 (stereo not shown) [4-03] | 2000 nM |
| COc1cc(-n2ccnc(N(C)CCc3ccccc3)c2=O)ccc1OCCN1CCCC1 [2-05] | 501 nM |
| O=c1c(NCCc2ccccc2)nccn1-c1ccc(N2CCN(CCO)CC2)c(Cl)c1 [3-79] | 63.1 nM |
| O=c1c(NCCOc2ccccc2)nccn1-c1ccc(OCCN(CCO)Cc2ccccc2)cc1 [1-33] | 794 nM |
| COc1cc(-n2ccnc(NCCc3ccc(C(F)(F)F)cc3)c2=O)ccc1OCCN1CCCC1 [2-34] | 100 nM |
